The values that follow come from patent US20200383985A1, “Inhibitors of Protease Activated Receptor-2” (Endosome Therapeutics, Inc., priority 2017, published 2020).

pEC50: −log10 of the molar value. Read-outs that look alike come from different tables or passages of the source.

One test relates to mice. The experiment in a line: Somatic mechanical nociception, von Frey filaments after intraplantar injection. The settings on record: for NE- and CS-induced allodynia / trypsin-induced mechanical allodynia: inhibitor 50 μM, 10 μl intraplantar; for NE- and CS-induced allodynia: 30 min before NE (1.2 μM) or CS (2.5 μM); for trypsin-induced mechanical allodynia: 30 min before trypsin (10 nM), at 1 and 2 h; for mechanical allodynia after intraplantar protease: WT mice, 10 μl trypsin (80 nM), NE (3.9 μM) or CS (5 μM), within 30 min, maintained for 180 min. Type of test: in vivo, mouse. As for the experimental part: After 30 min, trypsin (10 nM), NE (1.2 μM), or CS (2.5 μM) (10 μl) was injected into the same paw.
Mice were acclimatized to the experimental apparatus, room and investigator for 1-2 h on 2 successive days before studies. Investigators were blinded to the test agents. Mice were sedated (5% isoflurane) for intraplantar injections. Dy4a, Dy4 inact, PS2, PS2 inact (all 50 μM) or vehicle (0.2% DMSO in 0.9% NaCl) (10 μl) was injected into the left hindpaw. After 30 min, trypsin (10 or 80 nM), CS (2.5 or 5 μM) or NE (1.2 or 3.9 μM) (all 10 μl) was injected into the same hindpaw. Mechanical nociceptive responses were evaluated by examining paw withdrawal to stimulation of the plantar surface of the hind-paw with calibrated von Frey filaments. von Frey scores were measured in triplicate to establish a baseline for each animal on the day before experiments, and were then measured for up to 4 h after protease administration. To assess edema, paw thickness was measured at the site of injection between the plantar and the dorsal surfaces of the paw using digital calipers. For evaluation of neutrophil infiltration, paws were collected at 4 h after intraplantar injection of trypsin (10 μl, 80 nM) or vehicle, fixed in 10% neutral buffered formalin for 48-72 h, bisected, and fixed in formalin for an additional 12 h. Tissue was decalcified in 10% 0.5 M EDTA for 6 days, washed in water, transferred to 70% ethanol for 24 h, and embedded in paraffin. Sections (5 μm) were incubated with neutrophil antibody Ly6G/6C clone NIMP-R14 (Abcam #ab2557, Lot #GR135037-1, AB_303154, 1:800, room temperature, 12 h). Sections were processed for chromogenic immunohistochemistry on a Ventana Medical Systems Discovery XT platform with online deparaffinization using Ventana's reagents. Ly6G/Ly6c was enzymatically treated with protease-3 (Ventana Medical Systems) for 8 min. Ly6G/Ly6c was detected with goat anti-rat horseradish peroxidase conjugated multimer incubated for 16 min.

For the next test, the target named is T1, mPAR2-GFP (Mus musculus, UniProt P55086).
T1 construct: expressed in transfected cells; host or cells: mouse (C57BL/6) DRG neurons, nucleofection
T1 sequence (P55086 26-399): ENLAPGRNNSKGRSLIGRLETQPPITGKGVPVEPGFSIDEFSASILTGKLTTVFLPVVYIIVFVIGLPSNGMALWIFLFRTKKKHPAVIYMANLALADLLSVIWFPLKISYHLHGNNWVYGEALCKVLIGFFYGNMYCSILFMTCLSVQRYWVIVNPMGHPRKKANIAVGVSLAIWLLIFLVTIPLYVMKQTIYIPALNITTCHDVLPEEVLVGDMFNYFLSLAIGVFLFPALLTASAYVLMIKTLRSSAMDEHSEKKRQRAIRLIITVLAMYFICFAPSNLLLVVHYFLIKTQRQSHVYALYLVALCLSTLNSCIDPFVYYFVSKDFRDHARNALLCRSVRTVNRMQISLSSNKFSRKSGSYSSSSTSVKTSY
The experiment in a line: PAR2 trafficking (endocytosis) in DRG neurons. Type of test: cell-based. The settings on record: for mPAR2-GFP endocytosis: protease 100 nM, 30 min. Here is the method:
To assess endocytosis of PAR2 in nociceptors, mouse (m) PAR2-GFP was transfected in to mouse DRG neurons. In vehicle-treated neurons, mPAR2-GFP was detected at the plasma membrane and in intracellular compartments that may correspond to stores of PAR2 in the Golgi apparatus (FIG. 4A) (Jensen D. D., et al. J Biol Chem. 2016, 291(21): 11285-11299). Trypsin, but not NE or CS (100 nM, 30 min), induced mPAR2-GFP endocytosis (FIG. 4A, B). Dy4, but not Dy4 inact, inhibited trypsin-induced endocytosis of mPAR2-GFP (FIG. 4C). To determine whether PAR2 recruits βARRs, which mediate endocytosis, Bioluminescence Resonance Energy Transfer (BRET) sensors were expressed for PAR2-RLuc8 (donor) and βARR2-YFP (acceptor) in mouse DRG neurons. Trypsin, but not NE or CS, increased PAR2-RLuc8/βARR2-YFP BRET (FIG. 4D).
DRG were collected from C57BL/6 mice and Sprague-Dawley rats (all levels). DRG were incubated with collagenase IV (2 mg/ml) and dispase II (1 mg/ml) for 30 min (mice) and 45 min (rats) at 37° C. DRG were dispersed by trituration with a fire-polished Pasteur pipette. Dissociated neurons were transfected with mPAR2-GFP (1 μg), the FRET biosensors CytoEKAR, NucEKAR, pmCKAR or CytoCKAR (all […]), or with the BRET biosensors PAR2-RLuc8 (125 ng) and βARR2-FYP (475 ng) using the Lonza 4D-Nucleofector X unit according to the manufacturer's instructions. […]
Mouse DRG neurons expressing mPAR2-GFP were incubated with trypsin (10 nM), CS (100 nM), NE (100 nM) or vehicle (30 min, 37° C.), and were fixed (4% paraformaldehyde, 20 min, 4C). NeuN was detected by indirect immunofluorescence as described (Jensen, D. D. et al., Sci Transl Med. 2017, 9(392), eaal3447). […] PAR2 internalization in NeuN-positive neurons was quantified using ImageJ software. The border of the cytoplasm in the neuronal soma was defined by NeuN fluorescence. mPAR2-GFP fluorescence within 0.5 μm of the border was defined as plasma membrane-associated receptor. The ratio of plasma membrane to cytosolic mPAR2-GFP was determined.

In a further test the target is T2, PAR2-RLuc8 (Homo sapiens, UniProt P55085).
T2 construct: expressed in transfected cells; host or cells: HEK293, transient transfection with PEI
T2 sequence (P55085 26-397): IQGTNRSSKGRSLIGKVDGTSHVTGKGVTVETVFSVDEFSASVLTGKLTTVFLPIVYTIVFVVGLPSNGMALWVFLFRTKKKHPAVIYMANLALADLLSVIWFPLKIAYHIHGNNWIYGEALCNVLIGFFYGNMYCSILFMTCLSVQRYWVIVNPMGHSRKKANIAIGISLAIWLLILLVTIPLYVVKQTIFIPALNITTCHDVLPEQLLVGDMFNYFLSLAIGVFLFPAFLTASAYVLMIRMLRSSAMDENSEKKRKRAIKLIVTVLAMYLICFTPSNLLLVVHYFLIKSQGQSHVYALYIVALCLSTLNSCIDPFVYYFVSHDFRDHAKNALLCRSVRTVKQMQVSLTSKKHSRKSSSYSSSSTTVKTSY
The experiment in a line: BRET assays of PAR2 endocytosis in HEK293 cells. Type of test: cell-based. The settings on record: for pEC50: HEK293 cells.

With `O=C(N/N=C/c1cc(O)c(O)cc1O)c1cc2ccccc2cc1O` [Dy4], in the test with mice, the “NE- and CS-induced allodynia” value was “unchanged or minimally affected”; the trypsin-induced mechanical allodynia entry is “inhibited”. Further, the “trypsin-induced endocytosis of mPAR2-GFP” value on mPAR2-GFP (preincubated with Dy4 or Dy4 inact) is recorded as “inhibited”.
With trypsin, the “mechanical allodynia after intraplantar protease” value in the test with mice is reported as “induced mechanical allodynia”. At mPAR2-GFP, the mPAR2-GFP endocytosis result is on record as “induced”. In addition, the pEC50 on PAR2-RLuc8 (read-out: EC50, decrease in PAR2-RLuc8/RIT-Venus BRET) was 8.54; at PAR2-RLuc8 (read-out: EC50, increase in PAR2-RLuc8/Rab5a-Venus BRET) it was 8.57. In addition, the “PAR2-RLuc8/Rab5a-Venus BRET after 60 min” value at PAR2-RLuc8 (compared to HC supernatant, trypsin 10 nM positive control) was “increased”.
In the case of `O=C1NC(=NS(=O)(=O)c2cccc3ccccc23)S/C1=C\c1ccc(Br)cc1` [PS2], in the test with mice, the “NE- and CS-induced allodynia” value is recorded as “unchanged or minimally affected”; the trypsin-induced mechanical allodynia entry is recorded as “inhibited”. The “trypsin-induced decrease in PAR2-RLuc8/RIT-Venus BRET and increase in PAR2-RLuc8/Rab5a-Venus BRET” value on PAR2-RLuc8 (PS2 or PS2 inact) was “suppressed”.
As for “NE: protease (elastase) activating PAR2 by biased mechanisms”, the “mechanical allodynia after intraplantar protease” value with mice is on record as “induced mechanical allodynia”. The mPAR2-GFP endocytosis result in the test with mPAR2-GFP is on record as “not”. Further, in the test with PAR2-RLuc8 (100 nM), the “PAR2-RLuc8/RIT-Venus or Rab5a-Venus BRET” value was “Neither NE nor CS (100 nM) affected”.
